# Assay results: US10780092B2, “Fused pyrazine derivatives useful as soluble guanylate cyclase stimulators” (Merck Sharp & Dohme Corp., priority 2016, dated 2020)
# Legend:
# [1] = target: sGC α1/β1 heterodimer (Homo sapiens (Human), UniProt Q02108+Q02153); test: Cell-based sGC functional assay (CASA assay), cGMP by HTRF; settings: CHO-K1/sGC cells; for Emax: CHO-K1, cGMP production as percentage of maximum of compound A (set to 100%), read-out: % Activation; for EC50: inflection point of cGMP production, 4P fit, read-out: IP
# In short: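 CHO-K1 cells stably expressing human sGC α1/β1, with 0.5 mM IBMX, pre-incubated ±1 μM DETA-NO 30 min at 25° C, then compound 1 hr at 37° C (2.5% DMSO). cGMP by HTRF; activation as % of reference activator maximum, 4P fit giving inflection point and maximum […].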
# [2] = target: human recombinant sGC enzyme (Homo sapiens (Human), UniProt Q02108+Q02153); test: SEC competition binding assay with [3H] Compound B radioligand; settings: displacement of 1.6 nM [3H] Compound B, 24 h at 37° C.
# In short: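 Recombinant human sGC incubated with 1.6 nM [3H] Compound B and test compounds for 24 h at 37° C. Buffer: 50 mM triethanolamine pH 7.4, 3 mM MgCl2, 0.025% BSA, 2 mM DTT, 300 μM DETA/NO, 400 μM GTP, 1% DMSO. Bound ligand separated by gel filtration and counted by scintillation; non-specific binding with 1 μM Compound B; Ki from one-site fit.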
# [3] = test system: hypoxia-induced pulmonary hypertension in rat; test: Acute efficacy in hypoxia-induced pulmonary hypertension in rat following intratracheal (IT) administration; type: in vivo; settings: decrease in SBP at dose giving decrease in PAP ≥15 mmHg
# Description: Acute Efficacy in Hypoxia-Induced Pulmonary Hypertension in Rat Following Intratracheal (IT) Administration Charles River Sprague-Dawley (CD) male rats weighing approximately 350 g were implanted with HD-S21 dual pressure telemetry transmitters (Data Sciences International (DSI)) into the pulmonary artery and femoral artery. This transmitter enables simultaneous measurement of both pulmonary and systemic hemodynamic parameters in the same animal. After a 7-10 day post-operative recovery period, animals were subjected to a normobaric hypoxic (10% oxygen) environment using a Higher Peak Mountain Air Generator (MAG-10) connected to a modified rodent cage via a fitted inlet port. Oxygen (at 10%), temperature, humidity, and CO2 were controlled within normal range and animals were maintained on a 12 hour light-dark cycle with ad libitum access to food and water. After two weeks exposure to 10% O2 hypoxic environment, systolic pulmonary arterial pressure readings increased from ˜25 mmHg to greater than 50 mmHg. Using a 48 hour baseline average, animals with readings between 50-110 mmHg (standard deviation of less than 10 mmHg) and minimal changes in systolic systemic blood pressure were enrolled for study. Animals were utilized for up to 2 studies per week for 4 weeks with a minimum of 2 days washout between doses of test agent. Compound or vehicle was administered intra-tracheally under light isoflurane anesthesia (5% in oxygen; flow rate 2.0 L/min for 3 minutes). Once anesthetized, rats were placed on an angled intubation stand in supine position and the trachea visualized using a small laryngoscope. Animals then received either 0.5 mL/kg of vehicle or 0.5 mL/kg vehicle containing compound intra-tracheally delivered via microsprayer by use of a Penn-Century Microsprayer® needle 3″ (Model IA-1B-GP) attached to a 1 mL high pressure syringe (Penn Century-Model B—SYR-PL1000) (Penn-Century, Philadelphia, Pa.). The Microsprayer® tip was inserted into the trachea up to the point at which the bend in the needle is close to the tip of the snout, which positions the tip of the Microsprayer® in front of the carina (bifurcation of trachea at the bronchi). After dose delivery the animal is placed on its back in the home cage for recovery. Hemodynamic measurements were continuously recorded and readings consolidated to hourly moving averages. Each animal received a vehicle on Day 1 followed by vehicle or test agent on Day 2. Change from vehicle baseline was calculated by subtracting the hourly Day 1 vehicle response from the hourly Day 2 response and treatment group data was expressed as mean±SEM. Decreases of systolic blood pressure (SBP) and systolic pulmonary arterial pressure (PAP) were measured at a particular IT dose (mpk milligrams per kilogram) for the following Example compounds. Compounds in the Table 13 achieved a minimum decrease in PAP of ≥15 mmHg for the corresponding decrease in SBP listed.
Structure (SMILES),Emax [1] [%],EC50 [1] [nM],Ki [2] [nM],Category (decrease in SBP) ([3]; IT dose 0.01 mpk),Category (decrease in SBP) ([3]; IT dose 0.03 mpk)
"CC1(c2ccc(C(F)(F)F)c(O)c2)C(=O)Nc2nc(-c3cn4ccnc4c(Cc4ccccc4F)n3)nc(N)c21 (stereo not drawn) [Example 3-B, 4-Amino-2-{8-[(2-fluorophenyl)methyl]imidazo[1,2-a]pyrazin-6-yl}-5-[3-hydroxy-4-(trifluoromethyl)phenyl]-5-methyl-5,7-dihydro-6H-pyrrolo[2,3-d]pyrimidin-6-one]",98,2080,0.219,–,A (decrease in SBP 0-5 mmHg)
"CC1(c2cccc(O)c2)C(=O)Nc2nc(-c3cn4ccnc4c(Cc4cc(F)ccc4F)n3)nc(N)c21 (stereo not drawn) [Example 11-B, 4-Amino-2-{8-[(2,5-difluorophenyl)methyl]imidazo[1,2-a]pyrazin-6-yl}-5-(3-hydroxyphenyl)-5-methyl-5,7-dihydro-6H-pyrrolo[2,3-d]pyrimidin-6-one]",137,503,0.135,B (decrease in SBP 5-10 mmHg),–
"CC1(c2ccc(Cl)c(O)c2)C(=O)Nc2nc(-c3cn4ccnc4c(Cc4ccccc4F)n3)nc(N)c21 (stereo not drawn) [Example 8-A, 4-Amino-5-(4-chloro-3-hydroxyphenyl)-2-{8-[(2-fluorophenyl)methyl]imidazo[1,2-a]pyrazin-6-yl}-5-methyl-5,7-dihydro-6H-pyrrolo[2,3-d]pyrimidin-6-one]",72,316,0.117,B (decrease in SBP 5-10 mmHg),–
"CC1(c2cc(O)c(Cl)cn2)C(=O)Nc2nc(-c3cn4ccnc4c(Cc4ccccc4F)n3)nc(N)c21 (stereo not drawn) [Example 4-B, 4-Amino-5-(5-chloro-4-hydroxypyridin-2-yl)-2-{8-[(2-fluorophenyl)methyl]imidazo[1,2-a]pyrazin-6-yl}-5-methyl-5,7-dihydro-6H-pyrrolo[2,3-d]pyrimidin-6-one]",136,1920,0.259,–,A (decrease in SBP 0-5 mmHg)
"CC1(c2ccc(F)c(O)c2)C(=O)Nc2nc(-c3cn4ccnc4c(Cc4ccccc4F)n3)nc(N)c21 (stereo not drawn) [Example 13-B, 4-Amino-5-(4-fluoro-3-hydroxyphenyl)-2-{8-[(2-fluorophenyl)methyl]imidazo[1,2-a]pyrazin-6-yl}-5-methyl-5,7-dihydro-6H-pyrrolo[2,3-d]pyrimidin-6-one]",100,821,0.154,A (decrease in SBP 0-5 mmHg),–
"CC1(c2cc(O)c(Cl)c(F)c2)C(=O)Nc2nc(-c3cn4ccnc4c(Cc4ccccc4F)n3)nc(N)c21 (stereo not drawn) [Example 2-B, 4-Amino-5-(4-chloro-3-fluoro-5-hydroxyphenyl)-2-{8-[(2-fluorophenyl)methyl]imidazo[1,2-a]pyrazin-6-yl}-5-methyl-5,7-dihydro-6H-pyrrolo[2,3-d]pyrimidin-6-one]",89,1620,0.095,A (decrease in SBP 0-5 mmHg),–

# More lines, main results first:
Emax [1] [%],EC50 [1] [nM],Ki [2] [nM],Structure (SMILES),Category (decrease in SBP) ([3]; IT dose 0.01 mpk),Category (decrease in SBP) ([3]; IT dose 0.03 mpk)
141,433,0.283,"CC1(c2ccc(O)c(Cl)c2)C(=O)Nc2nc(-c3cn4ccnc4c(Cc4ccccc4F)n3)nc(N)c21 (stereo not drawn) [Example 28-B, 4-Amino-5-(3-chloro-4-hydroxyphenyl)-2-{8-[(2-fluorophenyl)methyl]imidazo[1,2-a]pyrazin-6-yl}-5-methyl-5,7-dihydro-6H-pyrrolo[2,3-d]pyrimidin-6-one]",B (decrease in SBP 5-10 mmHg),–
125,1260,0.149,"CC1(c2cc(O)c(Cl)cn2)C(=O)Nc2nc(-c3cn4ccnc4c(Cc4cc(F)ccc4F)n3)nc(N)c21 (stereo not drawn) [Example 94-B, 4-Amino-5-(5-chloro-4-hydroxypyridin-2-yl)-2-{8-[(2,5-difluorophenyl)methyl]imidazo[1,2-a]pyrazin-6-yl}-5-methyl-5,7-dihydro-6H-pyrrolo[2,3-d]pyrimidin-6-one]",–,B (decrease in SBP 5-10 mmHg)
68,144,0.156,"CC1(c2ccc(Cl)c(O)c2)C(=O)Nc2nc(-c3cn4ccnc4c(CC4CCCCC4)n3)nc(N)c21 (stereo not drawn) [Example 14-A, 4-Amino-5-(4-chloro-3-hydroxyphenyl)-2-(8-(cyclohexylmethyl)imidazo[1,2-a]pyrazin-6-yl)-5-methyl-5,7-dihydro-6H-pyrrolo[2,3-d]pyrimidin-6-one]",A (decrease in SBP 0-5 mmHg),–
88,950,0.168,"CC1(c2cc(O)c(C#N)c(F)c2)C(=O)Nc2nc(-c3cn4ccnc4c(CC4CCCCC4)n3)nc(N)c21 (stereo not drawn) [Example 18-B, 4-(4-Amino-2-(8-(cyclohexylmethyl)imidazo[1,2-a]pyrazin-6-yl)-5-methyl-6-oxo-6,7-dihydro-5H-pyrrolo[2,3-d]pyrimidin-5-yl)-2-fluoro-6-hydroxybenzonitrile]",–,B (decrease in SBP 5-10 mmHg)
88,1020,0.874,"CC1(c2cc(O)c(Cl)cn2)C(=O)Nc2nc(-c3cn4ccnc4c(Cc4cccc(F)c4)n3)nc(N)c21 (stereo not drawn) [Example 51-B, 4-Amino-5-(5-chloro-4-hydroxypyridin-2-yl)-2-{8-[(3-fluorophenyl)methyl]imidazo[1,2-a]pyrazin-6-yl}-5-methyl-5,7-dihydro-6H-pyrrolo[2,3-d]pyrimidin-6-one]",–,A (decrease in SBP 0-5 mmHg)
138,1080,0.587,"CC1(c2cc(O)c(C(F)(F)F)c(F)c2)C(=O)Nc2nc(-c3cn4ccnc4c(CC4CCCCC4)n3)nc(N)c21 (stereo not drawn) [Example 97-B, 4-Amino-2-(8-(cyclohexylmethyl)imidazo[1,2-a]pyrazin-6-yl)-5-(3-fluoro-5-hydroxy-4-(trifluoromethyl)phenyl)-5-methyl-5,7-dihydro-6H-pyrrolo[2,3-d]pyrimidin-6-one]",–,A (decrease in SBP 0-5 mmHg)
98,683,0.374,"CC1(c2cc(O)c(Cl)cn2)C(=O)Nc2nc(-c3cn4ccnc4c(CC4CCCCC4)n3)nc(N)c21 (stereo not drawn) [Example 93-B, 4-Amino-5-(5-chloro-4-hydroxypyridin-2-yl)-2-(8-(cyclohexylmethyl)imidazo[1,2-a]pyrazin-6-yl)-5-methyl-5,7-dihydro-6H-pyrrolo[2,3-d]pyrimidin-6-one]",–,A (decrease in SBP 0-5 mmHg)
117,223,0.252,"CC(C)CCc1nc(-c2nc(N)c3c(n2)NC(=O)C3(C)c2ccc(Cl)c(O)c2)cn2ccnc12 (stereo not drawn) [Example 25-A, 4-Amino-5-(4-chloro-3-hydroxyphenyl)-2-(8-isopentylimidazo[1,2-a]pyrazin-6-yl)-5-methyl-5,7-dihydro-6H-pyrrolo[2,3-d]pyrimidin-6-one]",–,B (decrease in SBP 5-10 mmHg)
95,279,2.5,"CC1(c2ccc(Cl)c(O)c2)C(=O)Nc2nc(-c3cn4ncnc4c(CCC(F)(F)C(F)(F)F)n3)nc(N)c21 (stereo not drawn) [Example 88-A, 4-Amino-5-(4-chloro-3-hydroxyphenyl)-5-methyl-2-(8-(3,3,4,4,4-pentafluorobutyl)-[1,2,4]triazolo[1,5-a]pyrazin-6-yl)-5,7-dihydro-6H-pyrrolo[2,3-d]pyrimidin-6-one]",–,A (decrease in SBP 0-5 mmHg)
